# In patent US10774064B2 (Cadent Therapeutics, Inc., priority 2016, dated 2020):
# Biological target: T1, small-conductance Ca2+-activated K+ channels (SK channels, subtype 2) (Homo sapiens, UniProt Q9H2S1)
# T1 construct: expressed in transfected cells; host or cells: HEK293
# Test: whole-cell patch-clamp of ionic current through SK2 channels in HEK293 cells (SC100)
# Assay type: cell-based
# Conditions: concentration that increases the basal current by 100%; HEK293 cells expressing SK2 channels
# Outline: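 Whole-cell patch-clamp recording of current in HEK293 cells expressing SK2 channels. SC100 is the compound concentration that increases basal current by 100%.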
row,SC100,Compound
1,+ (+ means >1 uM),"Cc1cc(NC2CCC(F)(F)CC2)nc(-c2cccc(Cl)n2)n1 [Compound 230, 2-(6-chloropyridin-2-yl)-N-(4,4-difluorocyclohexyl)-6-methyl pyrimidin-4-amine]"
2,+++ (+++ means <200 nM),"Cc1cc(C)n(-c2nc(NC3CCC(F)(F)CC3)cc(OCc3cnnn3C)n2)n1 [Compound 189, N-(4,4-difluorocyclohexyl)-2-(3,5-dimethyl-1H-pyrazol-1-yl)-6-((1-methyl-1H-1,2,3-triazol-5-yl)methoxy)pyrimidin-4-amine]"
3,+ (+ means >1 uM),"Cc1cc(C)n(-c2nc(NC3CCC(F)(F)CC3)cc(N[C@H]3CCN(C)C3=O)n2)n1 (single isomer, unassigned) [Compound 128, (+)-3-((6-((4,4-difluorocyclohexyl)amino)-2-(3,5-dimethyl-1H-pyrazol-1-yl)pyrimidin-4-yl)amino)-1-methylpyrrolidin-2-one]"
4,+ (+ means >1 uM),Cc1cc(NC2CCC(F)(F)C2)nc(-n2nc(C)cc2C)n1 (centres unmarked) [Compound 172]
5,+ (+ means >1 uM),"O=C1CCCN1Cc1cc(NC2CCC(F)(F)CC2)nc(-n2ccc(CF)n2)n1 [Compound 321, 1-((6-((4,4-difluorocyclohexyl)amino)-2-(3-(fluoromethyl)-1H-pyrazol-1-yl)pyrimidin-4-yl)methyl)pyrrolidin-2-one]"

# More lines, now with the values behind:
row,Compound,SC100
1,"Cc1cc(NC2CCC(C(F)(F)F)CC2)nc(-n2ccc(C)n2)c1 (centres unmarked) [Compound 180, 4-methyl-6-(3-methyl-1H-pyrazol-1-yl)-N-(4-(trifluoromethyl)cyclohexyl)pyridin-2-amine]",+ (+ means >1 uM)
2,"Cc1cc(C)n(-c2nc(NC3CCC(F)(F)CC3)cc(N3CCOC(C(C)(C)O)C3)n2)n1 (centres unmarked) [Compound 227, 2-(4-(6-((4,4-difluorocyclohexyl)amino)-2-(3,5-dimethyl-1H-pyrazol-1-yl)pyrimidin-4-yl)morpholin-2-yl)propan-2-ol]",++ (++ means 200 nM-1000 nM)
3,"Cc1cc(C)n(-c2nc(NC3CCCC(F)(F)C3)cc(C(C)(C)O)n2)n1 (centres unmarked) [Compound 356, 2-(6-((3,3-difluorocyclohexyl)amino)-2-(3,5-dimethyl-1H-pyrazol-1-yl)pyrimidin-4-yl)propan-2-ol]",+ (+ means >1 uM)
4,"COC(=O)N1CC(Oc2cc(NC3CCC(F)(F)CC3)nc(-c3nc(C(F)F)cs3)n2)C1 [Compound 330, methyl 3-((6-((4,4-difluorocyclohexyl)amino)-2-(4-(difluoromethyl)thiazol-2-yl)pyrimidin-4-yl)oxy)azetidine-1-carboxylate]",++ (++ means 200 nM-1000 nM)
5,"Cc1cn(-c2nc(NC3CCC(F)(F)CC3)cc(N3CCOCC3)n2)nc1CF [Compound 281, N-(4,4-difluorocyclohexyl)-2-(3-(fluoromethyl)-4-methyl-1H-pyrazol-1-yl)-6-morpholinopyrimidin-4-amine]",++ (++ means 200 nM-1000 nM)

# Same assay, conditions: whole-cell patch-clamp, HEK293 cells expressing SK2 channels; concentration that increases the basal current by 100%
row,SC100 (μM),Compound
1,++ (++ means 200 nM-1000 nM),"OCc1cc(NC2CCC(F)(F)CC2)nc(-n2ccc(C(F)(F)F)n2)n1 [IN11053-060-P1, (6-((4,4-difluorocyclohexyl)amino)-2-(3-(trifluoromethyl)-1H-pyrazol-1-yl)pyrimidin-4-yl) methanol]"
2,+ (+ means >1 uM),"CC(=O)c1cc(NC2CCC(F)(F)CC2)nc(-n2ccc(C(F)(F)F)n2)n1 [IN11053-059-P1, 1-(6-((4,4-difluorocyclohexyl)amino)-2-(3-(trifluoromethyl)-1H-pyrazol-1-yl)pyrimidin-4-yl)ethan-1-one]"
3,+ (+ means >1 uM),"Cc1csc(-c2cc(NC3CCC(F)(F)CC3)cc(C(C)O)c2)n1 (centres unmarked) [IN11104-077-P1, 1-(3-((4,4-difluorocyclohexyl)amino)-5-(4-methylthiazol-2-yl)phenyl) ethan-1-ol]"
4,++ (++ means 200 nM-1000 nM),COC(=O)N1CC(Oc2cc(NC3CCC(F)(F)CC3)nc(-c3nc(C)ns3)n2)C1 [NSSy5857]
5,+ (+ means >1 uM),"Cc1csc(-c2nc(C)cc(NC3CCC(F)(F)CC3)n2)c1 [IN11239-029-P1, N-(4,4-difluorocyclohexyl)-6-methyl-2-(4-methylthiophen-2-yl)pyrimidin-4-amine]"
6,+ (+ means >1 uM),"Cc1ccn(-c2cc(C(=O)O)nc(NC3CCC(F)(F)CC3)n2)n1 [NSSy6684, 2-((4,4-difluorocyclohexyl)amino)-6-(3-methyl-1H-pyrazol-1-yl)pyrimidine-4-carboxylic acid]"
7,+ (+ means >1 uM),"Cc1csc(-c2nc(NC3CCC(F)(F)CC3)cc(N3CCOCC3COC(C)C)n2)n1 (centres unmarked) [IN10965-091-P1, N-(4,4-difluorocyclohexyl)-6-(3-(isopropoxymethyl)morpholino)-2-(4-methylthiazol-2-yl)pyrimidin-4-amine]"
8,+ (+ means >1 uM),Cc1ccn(-c2nc(NC3CCC(F)(F)CC3)cc(N3C[C@@H]4C[C@H]3CO4)n2)n1 [NSSy6394]
9,+ (+ means >1 uM),"Cc1csc(-c2nc(NC3CCC(F)(F)CC3)cc(C(O)c3ccccc3)n2)n1 (centres unmarked) [IN10971-033-P1, (6-((4,4-difluorocyclohexyl)amino)-2-(4-methylthiazol-2-yl)pyrimidin-4-yl) (phenyl) methanol]"
10,++ (++ means 200 nM-1000 nM),"Cc1ccn(-c2cc(C(F)F)cc(NC3CCC(F)(F)CC3)n2)n1 [NSSy5839, N-(4,4-difluorocyclohexyl)-4-(difluoromethyl)-6-(3-methyl-1H-pyrazol-1-yl)pyridin-2-amine]"
11,++ (++ means 200 nM-1000 nM),Cc1ccn(-c2cc([C@@H](O)c3ncco3)cc(NC3CCC(F)(F)CC3)n2)n1 [NSSy6415]
12,+ (+ means >1 uM),"Cc1csc(-c2nc(NC3CCC(F)(F)CC3)cc(C(C)(F)F)n2)n1 [IN10876-082-P1, N-(4,4-difluorocyclohexyl)-6-(1,1-difluoroethyl)-2-(4-methylthiazol-2-yl)pyrimidin-4-amine]"
13,++ (++ means 200 nM-1000 nM),"FCc1csc(-c2nc(NC3CCC(F)(F)CC3)cc(N3CC4(COC4)C3)n2)n1 [NSSy5715, N-(4,4-difluorocyclohexyl)-2-(4-(fluoromethyl)thiazol-2-yl)-6-(2-oxa-6-azaspiro[3.3]heptan-6-yl)pyrimidin-4-amine]"
14,+++ (+++ means <200 nM),Cc1csc(-c2nc(NC3CCC(F)(F)CC3)cc(N3CC(F)(F)OC(F)(F)C3)n2)n1 [IN11030-032-P1]
15,+ (+ means >1 uM),"FC1(F)CCC(Nc2cc(N3CCOCC3)nc(-n3cccn3)n2)CC1 [IN10973-038-P1, N-(4,4-difluorocyclohexyl)-6-morpholino-2-(1H-pyrazol-1-yl)pyrimidin-4-amine]"
16,+ (+ means >1 uM),"Cc1ccn(-c2cc3ccccc3c(NC3CCC(F)(F)CC3)n2)n1 [IN11039-023-P1, N-(4,4-difluorocyclohexyl)-3-(3-methyl-1H-pyrazol-1-yl)isoquinolin-1-amine]"
17,+ (+ means >1 uM),"COC(C)c1cc(NC2CCC(F)(F)CC2)nc(-n2ccc(C(F)(F)F)n2)n1 (centres unmarked) [IN11053-076-P1, N-(4,4-difluorocyclohexyl)-6-(1-methoxyethyl)-2-(3-(trifluoromethyl)-1H-pyrazol-1-yl)pyrimidin-4-amine]"
18,++ (++ means 200 nM-1000 nM),"OCc1cc(NC2CCC(F)(F)CC2)nc(-c2nc(C3CC3)cs2)n1 [IN11147-082-P1, (2-(4-cyclopropylthiazol-2-yl)-6-((4,4-difluorocyclohexyl)amino)pyrimidin-4-yl) methanol]"
19,+++ (+++ means <200 nM),Cc1ccn(-c2cc(COc3ncccc3C(C)O)cc(NC3CCC(F)(F)CC3)n2)n1 (centres unmarked) [IN11039-066-P1]

# The remaining lines, values behind:
row,Compound,SC100 (μM)
1,"OCCN(CCO)c1cc(NC2CCC(F)(F)CC2)nc(-n2ccc(CO)n2)n1 [IN11337-019-P1, 2,2′-((6-((4,4-difluorocyclohexyl)amino)-2-(3-(hydroxymethyl)-1H-pyrazol-1-yl)pyrimidin-4-yl)azanediyl)bis-(ethan-1-ol)]",+ (+ means >1 uM)
2,Cc1ccn(-c2nc(NC3CCC(F)CC3)cc(N3CC4(COC4)C3)n2)n1 (centres unmarked) [NSSy5691],+ (+ means >1 uM)
3,Cc1ccn(-c2nc(NC3CCCC(C(F)(F)F)C3)cc(C(C)O)n2)n1 (centres unmarked) [IN10880-062-P1],+ (+ means >1 uM)
4,Cc1csc(-c2cc(OCc3cn(C)nn3)cc(NC3CCC(F)(F)CC3)n2)n1 [NSSy5680],+++ (+++ means <200 nM)
5,CC(=O)c1cc(NC2CCC(F)(F)CC2)nc(-n2ccc(C)n2)n1 [IN10876-041-P2],+ (+ means >1 uM)
6,COc1cc(NC2CCC3(CC2)COC3)nc(-c2nc(C)cs2)n1 [IN11104-084-P2],+ (+ means >1 uM)
7,Cc1ccn(-c2nc(NC3CCC(O)CC3)cc(N3CCOCC3)n2)n1 (centres unmarked) [NSSy6486],+ (+ means >1 uM)
8,COc1cc(NC2CCCCC2)nc(-n2nc(C)cc2C)n1 [IN11055-044-P1],+ (+ means >1 uM)
9,CC(F)(F)c1ccn(-c2nc(NC3CCC(F)(F)CC3)cc(N3CCOCC3)n2)n1 [IN11243-050-P2],++ (++ means 200 nM-1000 nM)
10,COc1ccn(-c2nc(NC3CCC(F)(F)CC3)cc(N3CCOCC3)n2)n1 [NSSy6993],++ (++ means 200 nM-1000 nM)
11,COc1cnc(-n2nc(C)c(F)c2C)nc1NC1CCC(F)(F)CC1 [NSSy7042],+ (+ means >1 uM)
12,COCC1CN(c2cc(NC3CCC(F)(F)CC3)nc(-c3nc(C)cs3)c2)CCO1 (centres unmarked) [NSSy5807],+++ (+++ means <200 nM)
13,Cc1ccn(-c2nc(N[C@H]3CC[C@H](C(N)=O)CC3)cc(N3CCOCC3)n2)n1 [NSSy6539],+ (+ means >1 uM)
14,CC(=O)N1CCN(c2cc(-n3ccc(F)n3)nc(NC3CCC(F)(F)CC3)n2)CC1 [NSSy6886],+ (+ means >1 uM)
15,"COC(=O)N1CC(Oc2nc(-c3nc(C)cs3)nc(NC3CCC(F)(F)CC3)c2Br)C1 [NSSy5868, methyl 3-((5-bromo-6-((4,4-difluorocyclohexyl)amino)-2-(4-methylthiazol-2-yl)pyrimidin-4-yl)oxy)azetidine-1-carboxylate]",+++ (+++ means <200 nM)
